From ChEMBL document CHEMBL4251708, “Synthesis and Biological Screening of Pyrano[3,2-c]quinoline Analogues as Anti-inflammatory and Anticancer Agents” (ACS Med Chem Lett, 2018)
Activity calls are given as the source filed them. The calls are words filed in the database; no cut-off is given here.

How the values were obtained:
MIA PaCa-2 = assay: Antiproliferative activity against human MIAPaCa2 cells at 10 uM relative to control; type: functional
[1] = tested on: MDA-MB-231 (Homo sapiens); assay: Antiproliferative activity against human MDA-MB-231 cells at 1 uM relative to control; conditions: mda-mb-231, 1 µM
THP-1 [2] = assay: Antiinflammatory activity in PMA-differentiated human THP1 cells assessed as inhibition of LPS-induced IL-6 production at 1 uM after 24 hrs by ELISA relative to control; type: functional; conditions: THP-1, 24 h
THP-1 [3] = assay: Antiinflammatory activity in PMA-differentiated human THP1 cells assessed as inhibition of LPS-induced TNF-alpha production at 1 uM after 24 hrs by ELISA relative to control; type: functional; conditions: THP-1, 24 h
ACHN (Homo sapiens) = assay: Antiproliferative activity against human ACHN cells at 1 uM relative to control
THP-1 [4] = assay: Antiinflammatory activity in PMA-differentiated human THP1 cells assessed as inhibition of LPS-induced IL-6 production at 10 uM after 24 hrs by ELISA relative to control; type: functional; conditions: THP-1, 24 h
[5] = tested on: MDA-MB-231 (Homo sapiens); assay: Antiproliferative activity against human MDA-MB-231 cells at 10 uM relative to control
THP-1 (Homo sapiens) [6] = assay: Antiinflammatory activity in human THP1 cells assessed as inhibition of TNF-alpha production at 10 uM relative to control; design: scale not given: the % may be the effect or the level left
THP-1 (Homo sapiens) [7] = assay: Antiinflammatory activity in human THP1 cells assessed as inhibition of IL-6 production at 10 uM relative to control; design: scale not given: the % may be the effect or the level left
THP-1 [8] = assay: Antiinflammatory activity in PMA-differentiated human THP1 cells assessed as inhibition of LPS-induced TNF-alpha production at 10 uM after 24 hrs by ELISA relative to control; type: functional; conditions: THP-1, 24 h
[9] = tested on: MIA PaCa-2 (Homo sapiens); assay: Antiproliferative activity against human MIA PaCa-2 cells at 1 uM relative to control
PBMC = assay: Antiinflammatory activity in human PBMC assessed as inhibition of LPS-induced TNF-alpha production incubated for 30 mins followed by LPS addition measured after 4.5 hrs by ELISA; type: functional, cell-based
Calu-1 = assay: Antiproliferative activity against human Calu1 cells after 48 hrs by propidium iodide staining based fluorometry; type: functional, cell-based; conditions: Calu-1, 48 h
HCT-116 = assay: Antiproliferative activity against human HCT116 cells after 48 hrs by propidium iodide staining based fluorometry; type: functional, cell-based; conditions: HCT-116, 48 h
THP-1 [10] = assay: Antiinflammatory activity in PMA-differentiated human THP1 cells assessed as inhibition of LPS-induced TNF-alpha production after 24 hrs by ELISA; type: functional, cell-based; conditions: THP-1, 24 h
THP-1 [11] = assay: Cytotoxicity against PMA-differentiated human THP1 cells assessed as reduction in cell viability after 4.5 hrs by MTS assay; type: cell-based; conditions: THP-1, 4.5 h
ACHN = assay: Antiproliferative activity against human ACHN cells after 48 hrs by propidium iodide staining based fluorometry; type: functional, cell-based
NCI-H460 = assay: Antiproliferative activity against human H460 cells after 48 hrs by propidium iodide staining based fluorometry; type: functional, cell-based; conditions: NCI-H460, 48 h
THP-1 [12] = assay: Antiinflammatory activity in PMA-differentiated human THP1 cells assessed as inhibition of LPS-induced IL-6 production after 24 hrs by ELISA; type: functional, cell-based; conditions: THP-1, 24 h
PANC-1 = assay: Antiproliferative activity against human PANC1 cells after 48 hrs by propidium iodide staining based fluorometry; type: functional, cell-based; conditions: PANC-1, 48 h

SMILES	Activity (MIA PaCa-2)	Activity [1]	inhibition at 1 µM (THP-1 [2])	inhibition at 1 µM (THP-1 [3])	Activity (ACHN (Homo sapiens))	inhibition at 10 µM (THP-1 [4])	Activity [5]	Activity (THP-1 (Homo sapiens) [6])	Activity (THP-1 (Homo sapiens) [7])	inhibition at 10 µM (THP-1 [8])	Activity [9]	IC50 (Calu-1)	IC50 (HCT-116)	IC50 (THP-1 [10])	IC50 (THP-1 [11])	IC50 (ACHN)	IC50 (NCI-H460)	IC50 (THP-1 [12])	IC50 (PANC-1)	other results
COc1ccc(C2C(C#N)=C(N)Oc3c2c(=O)n(C)c2ccccc32)cc1OC (stereo unspecified)	50%	20%	0%	0%	38%	23%	24%	0%	43%	0%	40%									
COc1ccccc1C1C(C#N)=C(N)Oc2c1c(=O)n(C)c1ccccc21 (stereo unspecified)	21%	22%	0%	0%	37%	14%	18%	0%	32%	0%	24%									
Cn1c(=O)c2c(c3ccccc31)OC(N)=C(C#N)C2c1c[nH]c2ccccc12 (stereo unspecified)	77%	16%	0%	0%	27%	8%	67%	0%		0%	18%	> 20 µM	> 20 µM	11 µM	6.8 µM	> 20 µM	> 20 µM	1.4 µM	> 20 µM	inhibition (PBMC): inactive
Cn1c(=O)c2c(c3ccccc31)OC(N)=C(C#N)C2c1ccc(O)cc1 (stereo unspecified)	83%	23%	0%	0%	55%	13%	77%	0%	0%	0%	55%	1.1 µM	0.6 µM	10 µM	30 µM	1.8 µM	1.2 µM	4 µM	1.9 µM	inhibition (PBMC): inactive
CN(C)c1ccc(C2C(C#N)=C(N)Oc3c2c(=O)n(C)c2ccccc32)cc1 (stereo unspecified)	31%	20%	0%	0%	41%	10%	22%	0%	0%	0%	34%									
Cn1c(=O)c2c(c3ccccc31)OC(N)=C(C#N)C2c1ccccc1Cl (stereo unspecified)	69%	0%	0%	0%	48%	0%		12%	0%	0%	26%									
C[C@@H]1C[C@H]2[C@@H]3CCC4=CC(=O)C=C[C@]4(C)[C@@]3(F)[C@@H](O)C[C@]2(C)[C@@]1(O)C(=O)CO [DEXAMETHASONE]			58%	40%																
COc1ccc(C2C(C#N)=C(N)Oc3c2c(=O)n(C)c2ccccc32)cc1 (stereo unspecified)	84%	70%	0%	0%	78%	73%	81%	0%	77%	0%	80%	> 20 µM	> 20 µM	12.8 µM	30 µM	> 20 µM	> 20 µM	1.7 µM	> 20 µM	inhibition (PBMC): inactive
Cn1c(=O)c2c(c3ccccc31)OC(N)=C(C#N)C2c1c2ccccc2cc2ccccc12 (stereo unspecified)	66%	19%	0%	0%	25%	10%	69%	0%	0%	0%	40%									
CSc1ccc(C2C(C#N)=C(N)Oc3c2c(=O)n(C)c2ccccc32)cc1 (stereo unspecified)	17%	0%	0%	0%	0%	0%	10%	28%	37%	0%	16%									
Cn1c(=O)c2c(c3ccccc31)OC(N)=C(C#N)C2c1cccc(O)c1 (stereo unspecified)	29%	0%	0%	5%	0%	0%	12%	4%	11%	0%	17%									
CCOc1cc(C2C(C#N)=C(N)Oc3c2c(=O)n(C)c2ccccc32)ccc1O (stereo unspecified)	68%	12%	0%	0%	6%	0%	88%	0%		0%	27%									
Cn1c(=O)c2c(c3ccccc31)OC(N)=C(C#N)C2c1cccc(Cl)c1 (stereo unspecified)	38%	53%	0%	0%	81%	74%		44%	74%	0%	63%	0.5 µM	0.3 µM	0.5 µM	> 10 µM	0.1 µM	0.3 µM	0.2 µM	1 µM	IC50 (PBMC): 1.8 µM
